Series [1] is described as follows: Toxicity (LD50) in healthy CD2F1 female mice, 14 days observation. Conditions: mouse, in vivo; for selectivity ratio: TI from LD50 (healthy CD2F1 mice) and ED50 (L1210 leukemic CD2F1 mice), read-out: Therapeutic index; for LD50 at 336 h: healthy CD2F1 female mice, 14 days observation period. The method, then: (§1) Antileukemic activity against L1210, toxicity and therapeutic
(§2) anlysis. Toxicity (LD50) were determined in healthy CD2F1 femal
mice during 14 days observation period. TI = LD50

The test system of another series is L1210. Briefly: Antileukemic activity in L1210 leukemic CD2F1 female mice (increase in life span). It counts as in vivo. The settings on record: for ED50: Mus musculus, L1210 leukemic CD2F1 female mice, estimated by regression analysis, read-out: ED50 (dose producing 50% increase in life span of treated mice over control); for advantage over parent ifosfamide: racemic or enantiomeric compounds, versus ifosfamide, conclusion from Table 1. The method, then: as §1
Antileukemic activity was evaluated in L1210 leukemic CD2F1 female
mice ED50 doses producing the 50% increase in life span of treated
mice over control were estimated from experimental data by regression
as §2

The text below walks through data of patent US4684742A, “Process for the production of 2-(2-halogenoethylamino)-2-oxo-3-(2-halogenoethyl)-1.3.2.-oxazaphosphori nanes” (Polska Akademia Nauk-Centrum Baden Molekularnych i …, priority 1984, dated 1987).

What is called LD50 is the dose at which mortality reaches 50%. A high value points to a less toxic substance. Usually ED50 stands for the dose at which the effect has come halfway, by size or by number of responders.

For the compound `O=P1(NCCBr)OCCCN1CCBr` (centres unmarked) [X=Br, Y=Br, 2-(2-Bromoethylamino)-2-oxo-3-(2-bromoethyl)-1.3.2-oxazaphosphorinane], in series [1], the selectivity ratio came out at 10.7 and the LD50 at 336 h was determined as 459 mg/kg. Besides, in the series on L1210, the ED50 was 43 mg/kg and the “advantage over parent ifosfamide” value was “more advantageous than parent ifosfamide”.

With `O=P1(NCCCl)OCCCN1CCBr` (centres unmarked) [X=Cl, Y=Br, 2-(2-Chloroethylamino)-2-oxo-3-(2-bromoethyl)-1.3.2-oxazaphosphorinane], in series [1], the selectivity ratio worked out at 11.6 and the LD50 at 336 h turned out to be 512 mg/kg. In the series on L1210, the ED50 is 44 mg/kg and the “advantage over parent ifosfamide” value is reported as “more advantageous than parent ifosfamide”.

With `O=P1(NCCCl)OCCCN1CCCl` (centres unmarked) [X=Cl, Y=Cl, 2-(2-chloroethylamino)-2-oxo-3-(2-chloroethyl)-1.3.2-oxazaphosphorinane, reference compound], in series [1], the selectivity ratio stood at 6.6 and the median lethal dose (LD50) at 336 h is 680 mg/kg. For the same compound, the ED50 in the series with L1210 is 103 mg/kg.
